Species on record: Rattus norvegicus
Experiment: Open TG-GATES - Regimen: Single
Assay type: toxicity, organism-based, Sprague-Dawley
Parameters: regimen Single, gender Male, age 6 weeks
Settings: in vivo, po, 100 mg/kg, route gavage, dose level Low; for APTT / Bas / Eos / Fbg / Hb / Ht / Lym / MCV / Mono / Neu / PT / Plat / RBC / Ret / WBC / MCH / MCHC: tissue Blood; for KIDNEY_L / KIDNEY_R / KIDNEY_TOTAL: tissue Kidney; for LIVER: tissue Liver; for ALP / ALT / AST / BUN / CRE / Ca / DBIL / GLC / IP / K / LDH / Na / PL / RALB / TBIL / TC / TG / TP / gamma-GTP: tissue Plasma

Structure (SMILES): O=C(O)c1cn(C2CC2)c2cc(N3CCNCC3)c(F)cc2c1=O [CIPROFLOXACIN]
- TERMINAL_BW (3 h): 185.5 g
- APTT (3 h): 16.8 s
- Bas (3 h): 0%
- Eos (3 h): 0.8%
- Fbg (3 h): 213 mg/dL
- Hb (3 h): 12.9 g/dL
- Ht (3 h): 38.6%
- Lym (3 h): 78.4%
- MCV (3 h): 67.5 fL
- Mono (3 h): 8.4%
- Neu (3 h): 12.8%
- PT (3 h): 12.3 s
- Plat (3 h): 104.3 x10_4/uL
- RBC (3 h): 572.8 x10_4/ul
- Ret (3 h): 10.8%
- WBC (3 h): 106 x10_2/uL
- KIDNEY_L (3 h): 0.8 g
- KIDNEY_R (3 h): 0.9 g
- KIDNEY_TOTAL (3 h): 1.7 g
- LIVER (3 h): 9.1 g
- ALP (3 h): 856.2 IU/L
- ALT (3 h): 35 IU/L
- AST (3 h): 68.6 IU/L
- BUN (3 h): 12.4 mg/dL
- CRE (3 h): 0.5 mg/dL
- Ca (3 h): 11.2 mg/dL
- DBIL (3 h): 0.018 mg/dL
- GLC (3 h): 192 mg/dL
- IP (3 h): 9.8 mg/dL
- K (3 h): 4.9 meq/L
- LDH (3 h): 81.4 IU/L
- Na (3 h): 139 meq/L
- PL (3 h): 144.4 mg/dL
- RALB (3 h): 3.7 g/dL
- TBIL (3 h): 0.4 mg/dL
- TC (3 h): 84.6 mg/dL
- TG (3 h): 45.6 mg/dL
- TP (3 h): 5.5 g/dL
- gamma-GTP (3 h): 1.4 IU/L
- TERMINAL_BW (6 h): 179.2 g
- APTT (6 h): 17.2 s
- Bas (6 h): 0%
- Eos (6 h): 0.4%
- Fbg (6 h): 216.6 mg/dL
- Hb (6 h): 13 g/dL
- Lym (6 h): 73%
- MCH (6 h): 21.4 pg
- MCHC (6 h): 33.2%
- MCV (6 h): 64.5 fL
- Mono (6 h): 6%
- PT (6 h): 12.4 s
- Plat (6 h): 102.1 x10_4/uL
- RBC (6 h): 608.4 x10_4/ul
- Ret (6 h): 10.5%
- WBC (6 h): 119.3 x10_2/uL
- KIDNEY_L (6 h): 0.9 g
- KIDNEY_R (6 h): 0.9 g
- KIDNEY_TOTAL (6 h): 1.7 g
- LIVER (6 h): 8.1 g
- ALP (6 h): 779.4 IU/L
- ALT (6 h): 33.6 IU/L
- AST (6 h): 70.4 IU/L
- BUN (6 h): 10.8 mg/dL
- CRE (6 h): 0.5 mg/dL
- Ca (6 h): 11.4 mg/dL
- DBIL (6 h): 0.05 mg/dL
- GLC (6 h): 182.4 mg/dL
- IP (6 h): 10.3 mg/dL
- K (6 h): 5.4 meq/L
- LDH (6 h): 98 IU/L
- Na (6 h): 138.8 meq/L
- PL (6 h): 128.2 mg/dL
- RALB (6 h): 3.9 g/dL
- TBIL (6 h): 0.3 mg/dL
- TC (6 h): 71.4 mg/dL
- TG (6 h): 39.8 mg/dL
- TP (6 h): 5.6 g/dL
- gamma-GTP (6 h): 1 IU/L
- TERMINAL_BW (9 h): 174.2 g
- APTT (9 h): 16.2 s
- Bas (9 h): 0%
- Eos (9 h): 1%
- Fbg (9 h): 215 mg/dL
- Hb (9 h): 13.5 g/dL
- Lym (9 h): 77.2%
- MCV (9 h): 67.9 fL
- Mono (9 h): 5.2%
- Neu (9 h): 17%
- PT (9 h): 11.5 s
- Plat (9 h): 100.5 x10_4/uL
- RBC (9 h): 605.8 x10_4/ul
- Ret (9 h): 9.9%
- WBC (9 h): 77 x10_2/uL
- KIDNEY_L (9 h): 0.9 g
- KIDNEY_R (9 h): 0.9 g
- KIDNEY_TOTAL (9 h): 1.8 g
- LIVER (9 h): 7.3 g
- ALP (9 h): 813.2 IU/L
- ALT (9 h): 33.6 IU/L
- AST (9 h): 68.8 IU/L
- BUN (9 h): 11 mg/dL
- CRE (9 h): 0.5 mg/dL
- Ca (9 h): 10.9 mg/dL
- DBIL (9 h): 0.066 mg/dL
- GLC (9 h): 190 mg/dL
- IP (9 h): 11.5 mg/dL
- K (9 h): 4.9 meq/L
- LDH (9 h): 94.2 IU/L
- Na (9 h): 139.6 meq/L
- PL (9 h): 142.4 mg/dL
- RALB (9 h): 3.8 g/dL
- TBIL (9 h): 0.2 mg/dL
- TC (9 h): 88.4 mg/dL
- TP (9 h): 5.6 g/dL
- gamma-GTP (9 h): 1.4 IU/L
- TERMINAL_BW (24 h): 191.7 g
- Bas (24 h): 0%
- Eos (24 h): 1%
- Fbg (24 h): 218 mg/dL
- Hb (24 h): 13.5 g/dL
- Ht (24 h): 40.5%
- Lym (24 h): 77%
- MCH (24 h): 22.1 pg
- MCHC (24 h): 33.4%
- MCV (24 h): 66.3 fL
- Mono (24 h): 7%
- Neu (24 h): 15%
- Plat (24 h): 105.4 x10_4/uL
- RBC (24 h): 610.4 x10_4/ul
- Ret (24 h): 9.2%
- WBC (24 h): 102.8 x10_2/uL
- KIDNEY_L (24 h): 0.9 g
- KIDNEY_R (24 h): 0.9 g
- KIDNEY_TOTAL (24 h): 1.7 g
- LIVER (24 h): 8 g
- ALP (24 h): 953.6 IU/L
- ALT (24 h): 40.4 IU/L
- AST (24 h): 74.6 IU/L
- BUN (24 h): 17.2 mg/dL
- CRE (24 h): 0.5 mg/dL
- Ca (24 h): 11.2 mg/dL
- DBIL (24 h): 0.058 mg/dL
- GLC (24 h): 191.6 mg/dL
- IP (24 h): 9.2 mg/dL
- K (24 h): 4.7 meq/L
- Na (24 h): 139.4 meq/L
- PL (24 h): 161.4 mg/dL
- RALB (24 h): 3.8 g/dL
- TBIL (24 h): 0.3 mg/dL
- TC (24 h): 100 mg/dL
- TP (24 h): 5.9 g/dL

— ChEMBL document CHEMBL3885861, “Open TG-GATES”
